{
  "source": "patent US8871715B2",
  "about": "“Use of selenium compounds, especially selenium yeasts for altering cognitive function” (Alltech, Inc., priority 2005, dated 2014)",
  "assay_type_in_all_cases": "in vivo, mouse (male C57BL/6J)",
  "key": {"[1]": {"tested_on": "gene expression in the mouse intestine", "assay": "Gene expression in mouse intestine (microarray) with dietary selenium vs selenium deficient diet", "details": "diet 1 ppm Se for 100 days vs selenium deficient diet", "text": "(§1) Animal Care. Male C57BL/6J mice were housed singly and started on the experimental diets described below immediately after weaning (21 days of age). The mice were maintained in the Shared Aging Rodent Facility at the William S. Middleton Memorial Veterans Administration Medical Center (Madison, Wis.). Temperature and humidity were maintained at constant levels. Room light was controlled to provide 12-hr cycles of light and dark.\n(§2) Experimental diets were created by Harlan Teklad (Madison, Wis.). Selenium content of the diets was determined by Covance Inc. (Madison, Wis.). Five (5) animals were included in each of the following treatment groups: a diet deficient in selenium (SD); a diet supplemented with selenomethionine (SM, obtained from Sigma, St. Louis, Mo.) such that the final selenium content of the diet was one (1) part per million; a diet supplemented with sodium selenite (SS, Sigma) such that the final concentration of selenium in this diet was one (1) part per million; or a diet supplemented with the yeast selenium SEL-PLEX (SP, Alltech, Lexington, Ky.), such that the final concentration of selenium in this diet was one (1) part per million. SEL-PLEX. Mice were provided with water and their respective diet ad libitum for 100 days. Diets were stored at the dark at 4° C. and fresh diet was added to feeder twice weekly.\n(§3) Tissue sample preparation and microarray analysis. Mice were killed at 100 days of age by cervical dislocation. For intestinal expression studies, the intestine was flushed twice with saline solution and small intestine was measured and divided in three equal segments. A 3-cm region of the middle segment of the small intestine corresponding to the jejunum (˜300 mg of tissue) was cut and rinsed again with physiological saline to completely remove contents, flash frozen in liquid nitrogen and stored at −80° C. For brain (e.g., cerebral cortex) studies, the cerebral cortex was separated from the surrounding brain tissue and was flash frozen in liquid nitrogen and stored at −80° C.\n(§4) Total RNA was isolated from using the guanidinium isothiocyanate method of TRIZOL (Life Technologies, Grand Island, N.Y.) and individual samples were used for gene expression profiles. Total RNA was cleaned up by RNeasy Mini kit (Qiagen, Valencia, Calif.). Target RNA was prepared by converting […] total RNA into double-strand cDNA using GeneChip Expression 3′-Amplification Reagents One-Cycle cDNA Synthesis Kit (Affymetrix, Santa Clara, Calif.) with a T7-(dT)24 primer incorporating a T7 RNA polymerase promoter. After cleaning up double-strand cDNA using Genechip Sample Cleanup Module (Affymetrix, Santa Clara, Calif.), biotin-labeled cRNA was synthesized from double-strand cDNA using GeneChip Expression 3′-Amplification Reagents for IVT Labeling (Affymetrix, Santa Clara, Calif.). The biotin-labeled cRNA was cleaned up using Genechip Sample Cleanup Module and was fragmented by heating (35 min at 94° C.).\n(§5) Fifteen (15) μg of cRNA fragments were hybridized (16 h at 45° C.) to Mouse Genome 430 2.0 Array (Affymetrix, Santa Clara, Calif.) using GeneChip Hybridization Oven 640. After hybridization, the gene chips were automatically washed and stained with streptavidin-phycoerythrin biotinylated anti-streptavidin using Affymetrix GeneChip Fluidics Station 450. The DNA chips were scanned with Affymetrix GeneChip Scanner 3000 (Affymetrix, Santa Clara, Calif.) to detect the cell signal intensities by laser. All calculations were performed with Affymetrix GeneChip Operating Software (GCOS) version 1.3 after scanning.\n(§6) • 1. The spreadsheet containing probe set identifiers and signal intensity values was opened in Microsoft Excel (version 11.1.1 for the Macintosh OS-X operating system) and summary statistics were generated (mean signal intensity for each treatment group, standard error of the mean). Two-tailed t-tests (equal variance) were performed for the following treatment groups: SM vs. SD, SS vs. SD, and SP vs. SD. […]"}, "[2]": {"tested_on": "brain (cerebral cortex) gene expression", "assay": "Gene expression in mouse brain (cerebral cortex, microarray) with dietary selenium vs selenium deficient diet", "details": "diet 1 ppm Se for 100 days vs selenium deficient diet", "text": "as §1, §2, §3, §4, §5, §6"}, "[3]": {"assay": "Body weight of mice on selenium diets", "text": "as §1\nExperimental diets were created by Harlan Teklad (Madison, Wis.). Selenium content of the diets was determined by Covance Inc. (Madison, Wis.). […]\nThus, it was an object of the present invention to determine whether compositions and methods of the present invention could alter the expression levels (e.g., mRNA levels) of various genes. One group of genes analyzed were genes classically associated with selenium. As described above, the expression levels of genes were analyzed between mice with and without dietary selenium, or, between mice fed different sources of selenium) (See, e.g., Table 1, below)."}},
  "note": "Marks after values point to notes of the source that are not given here.",
  "data": [
    {"compound": "C[Se]CC[C@H](N)C(=O)O", "note": "[SeM, selenomethionine]", "values": [
      {"measurement": "Glutathione Peroxidase 1 gene expression, fold change (FC)", "setting": "[1]", "value": 4.9, "unit": "fold"},
      {"measurement": "Glutathione Peroxidase 3 gene expression, fold change (FC)", "setting": "[1]", "value": 4.6, "unit": "fold"},
      {"measurement": "Glyoxalase 1 (Glo1) expression, fold reduction", "setting": "[1]", "value": "not significantly affected"},
      {"measurement": "Growth arrest and DNA-damage-inducible 45 gamma (Gadd45g) expression, FC", "setting": "[1]", "value": "−1.5", "unit": "fold"},
      {"measurement": "LIM homeobox protein 8 gene (Lhx8) expression, fold upregulation", "setting": "[1]", "value": "not significantly different"},
      {"measurement": "Neurogenin 3 (Neurog3) expression, fold upregulation", "setting": "[1]", "value": "no significant alteration"},
      {"measurement": "Prohibitin (Phb) expression, fold upregulation", "setting": "[1]", "value": 1.6, "unit": "fold"},
      {"measurement": "SelR (Selenoprotein X1) gene expression, fold upregulation", "setting": "[1]", "value": "not significantly affected"},
      {"measurement": "Selenoprotein W (SelW) expression, fold upregulation", "setting": "[1]", "value": "not significantly altered"},
      {"measurement": "Thioredoxin Reductase 1 gene expression, fold increase", "setting": "[1]", "value": 1.8, "unit": "fold"},
      {"measurement": "expression pattern of GST genes (summary in words)", "setting": "[1]", "value": "no alteration"},
      {"measurement": "selenoprotein N1 (Sepn1) gene expression, fold increase", "setting": "[1]", "value": "not significantly affected"},
      {"measurement": "sprouty homolog 2 gene (Spry2) expression, fold reduction", "setting": "[1]", "value": "no alteration"},
      {"measurement": "transforming growth factor beta 2 (TGF-β2) expression, fold upregulation", "setting": "[1]", "value": "not altered"},
      {"measurement": "type II iodothyronine deiodinase (Dio2) expression, fold down-regulation", "setting": "[1]", "value": "no ability to alter"},
      {"measurement": "Gadd45g1p expression in intestinal tissue (in words)", "setting": "[1]; p<0.05", "value": "decreased expression"},
      {"measurement": "CORS-26 expression, fold reduction", "setting": "[2]; cerebral cortex", "value": "no alteration"},
      {"measurement": "Complement component 1, q subcomponent, gamma polypeptide, C1qg expression, FC", "setting": "[2]; cerebral cortex", "value": 1.0, "unit": "fold"},
      {"measurement": "expression of complement component genes (summary in words)", "setting": "[2]; cerebral cortex", "value": "did not provide a statistically significant alteration"},
      {"measurement": "body weights of mice", "setting": "[3]; mouse, in vivo", "value": "No significant differences"}
    ]},
    {"compound": "O=[Se](O)O", "note": "[Sod-sel, sodium selenite]", "values": [
      {"measurement": "Cu chaperone for SOD (CCS) expression, fold enhancement", "setting": "[1]", "value": 1.28, "unit": "fold"},
      {"measurement": "Glutathione Peroxidase 1 gene expression, fold change (FC)", "setting": "[1]", "value": 4.1, "unit": "fold"},
      {"measurement": "Glutathione Peroxidase 3 gene expression, fold change (FC)", "setting": "[1]", "value": 3.5, "unit": "fold"},
      {"measurement": "Glutathione S-transferase, alpha 3 (Gsta3) expression, FC", "setting": "[1]", "value": "−2.3", "unit": "fold"},
      {"measurement": "Glutathione S-transferase, mu 1 (Gstm1) expression, FC", "setting": "[1]", "value": "−2.4", "unit": "fold"},
      {"measurement": "Glutathione S-transferase, mu 2 (Gstm2) expression, FC", "setting": "[1]", "value": "−2.1", "unit": "fold"},
      {"measurement": "Glutathione S-transferase, mu 3 (Gstm3) expression, FC", "setting": "[1]", "value": "−2.7", "unit": "fold"},
      {"measurement": "Glutathione S-transferase, theta 2 (Gstt2) expression, FC", "setting": "[1]", "value": "−1.3", "unit": "fold"},
      {"measurement": "Growth arrest and DNA-damage-inducible 45 gamma (Gadd45g) expression, FC", "setting": "[1]", "value": "−2.0", "unit": "fold"},
      {"measurement": "SOD1 expression, fold enhancement", "setting": "[1]", "value": 1.92, "unit": "fold"},
      {"measurement": "SelR (Selenoprotein X1) gene expression, fold upregulation", "setting": "[1]", "value": 1.3, "unit": "fold"},
      {"measurement": "Selenoprotein W (SelW) expression, fold upregulation", "setting": "[1]", "value": 5.1, "unit": "fold"},
      {"measurement": "Thioredoxin Reductase 1 gene expression, fold increase", "setting": "[1]", "value": 1.7, "unit": "fold"},
      {"measurement": "Type 1 iodothyronine deiodinase expression level, fold increase", "setting": "[1]", "value": 2.8, "unit": "fold"},
      {"measurement": "Gadd45b expression, FC", "setting": "[2]; brain", "value": "−1.39* fold"},
      {"measurement": "Gadd45g1p (Growth arrest and DNA-damage inducible 45 gamma interacting protein) expression, FC", "setting": "[2]; brain", "value": "−1.12", "unit": "fold"},
      {"measurement": "Gst mu 7 (Gstm7) expression, FC", "setting": "[2]; brain", "value": "−1.25* fold"},
      {"measurement": "Gst pi 1 (Gstp1) expression, FC", "setting": "[2]; brain", "value": 1.02, "unit": "fold"},
      {"measurement": "Gst zeta 1 (Gstz1) expression, FC", "setting": "[2]; brain", "value": "−1.3", "unit": "fold"},
      {"measurement": "Amyloid beta (A4) precursor protein-binding, family A, member 1 (Apba1) expression, FC", "setting": "[2]; cerebral cortex", "value": "−1.41", "unit": "fold"},
      {"measurement": "Amyloid beta (A4) precursor protein-binding, family B, member 1 (Apbb1 or Fe65) expression, FC", "setting": "[2]; cerebral cortex", "value": "−1.32* fold"},
      {"measurement": "Amyloid beta (A4) precursor-like protein (Aplp 1) expression, FC", "setting": "[2]; cerebral cortex", "value": "−1.55* fold"},
      {"measurement": "Cathepsin B expression, FC", "setting": "[2]; cerebral cortex", "value": "−1.13* fold"},
      {"measurement": "Cathepsin D expression, FC", "setting": "[2]; cerebral cortex", "value": "−1.24* fold"},
      {"measurement": "Cathepsin O expression, FC", "setting": "[2]; cerebral cortex", "value": "−1.18", "unit": "fold"},
      {"measurement": "Cathepsin Z expression, FC", "setting": "[2]; cerebral cortex", "value": "−1.30* fold"},
      {"measurement": "Complement component 1, q subcomponent binding protein, C1qbp expression, FC", "setting": "[2]; cerebral cortex", "value": 1.11, "unit": "fold"},
      {"measurement": "Complement component 1, q subcomponent, alpha polypeptide, C1qa expression, FC", "setting": "[2]; cerebral cortex", "value": "−1.18", "unit": "fold"},
      {"measurement": "Complement component 1, q subcomponent, beta polypeptide, expression, FC", "setting": "[2]; cerebral cortex", "value": "−1.35", "unit": "fold"},
      {"measurement": "Complement component 1, q subcomponent, gamma polypeptide, C1qg expression, FC", "setting": "[2]; cerebral cortex", "value": "−1.07", "unit": "fold"},
      {"measurement": "Complement component 1, r subcomponent, C1r expression, FC", "setting": "[2]; cerebral cortex", "value": "−1.29", "unit": "fold"},
      {"measurement": "Junb expression, FC", "setting": "[2]; cerebral cortex", "value": "−1.59", "unit": "fold"},
      {"measurement": "Nicastrin expression, FC", "setting": "[2]; cerebral cortex", "value": "−1.67* fold"},
      {"measurement": "Presenilin 1 expression, FC", "setting": "[2]; cerebral cortex", "value": "−1.11", "unit": "fold"},
      {"measurement": "body weights of mice", "setting": "[3]; diets with 1 ppm Se vs selenium deficient diet, FIG. 1", "value": "No significant differences"}
    ]}
  ]
}
